Values quoted from earlier work in patent US20180221406A1, “THERAPEUTIC COMBINATIONS OF ANTIVIRAL AND ANTI-INFLAMMATORY THERAPIES” (Foresight Biotherapeutics, Inc., priority 2015, published 2018).

Key:
[1] = system: acute rhinosinusitis principally of viral origin; conditions: in vivo
[2] = system: respiratory syncytial virus (RSV); conditions: in vivo

SMILES | Efficacy in uncomplicated acute rhinosinusitis [1] | Efficacy in bronchiolitis caused by RSV [2]
C[C@]12C=CC(=O)C=C1CC[C@@H]1[C@@H]2[C@@H](O)C[C@@]2(C)[C@H]1CC[C@]2(O)C(=O)CO [prednisolone] | ineffective | –
C[C@@H]1C[C@H]2[C@@H]3CCC4=CC(=O)C=C[C@]4(C)[C@@]3(F)[C@@H](O)C[C@]2(C)[C@@]1(O)C(=O)CO [dexamethasone, (8S,9R,10S,11S,13S,14S,16R,17R)-9-fluoro-11,17-dihydroxy-17-(2-hydroxyacetyl)-10,13,16-trimethyl-6,7,8,11,12,14,15,16-octahydrocyclopenta[a]phenanthren-3-one] | – | ineffective
